Source: PubChem BioAssay AID488998 (The Scripps Research Institute Molecular Screening Center, 2010)
Active and inactive are the calls of the source.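 The calls were made as follows: active = IC50 at or below 10 µM; inactive = IC50 above 10 µM.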

The compounds below were run against Lytic switch protein BZLF1 (Epstein-Barr virus (strain B95-8)) (UniProt P03206) (assay: EBV ZTA inhibitors, concentration series – biochemical, fluorescence polarization, dose response, round 0, counter-screen for EBNA-1 inhibitor project, late-stage follow-up (AID 488998)). Details: purified Zta–Cy5 ZRE DNA binding.
Chain of Lytic switch protein BZLF1 (Epstein-Barr virus (strain B95-8)) (P03206 whole entry, looked up): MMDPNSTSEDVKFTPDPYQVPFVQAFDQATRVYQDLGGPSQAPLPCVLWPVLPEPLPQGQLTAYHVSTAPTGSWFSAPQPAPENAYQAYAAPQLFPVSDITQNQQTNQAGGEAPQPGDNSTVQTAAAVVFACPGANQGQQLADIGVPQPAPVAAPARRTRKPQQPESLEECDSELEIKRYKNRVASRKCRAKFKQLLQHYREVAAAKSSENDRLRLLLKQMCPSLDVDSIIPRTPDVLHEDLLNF

Row | SMILES | IC50
1 | COc1ccccc1C(=O)Nc1nc2ccc(S(C)(=O)=O)cc2s1 | > 111 µM (inactive)
2 | O=C(CSc1nnnn1-c1ccccc1)c1ccn(CC2CCCO2)c1 (stereo not given) | > 111 µM (inactive)
3 | Cc1ccc(C(=O)Nc2nc3cc(Br)ccc3s2)cc1C | > 111 µM (inactive)
4 | Cc1cc(C(=O)CSc2nnnn2-c2ccccc2)c(C)n1Cc1cccs1 | > 111 µM (inactive)
5 | CS(=O)(=O)c1ccc2nc(NC(=O)c3cccc(Cl)c3)sc2c1 | > 111 µM (inactive)
6 | CS(=O)(=O)c1ccc2nc(NC(=O)c3cccc(F)c3)sc2c1 | > 111 µM (inactive)
7 | Cc1cc(C(=O)CSc2nnnn2-c2cccc(F)c2)c(C)n1CC1CCCO1 (stereo not given) | > 111 µM (inactive)
8 | Cc1ccccc1-n1nnnc1SCC(=O)c1cc(C)n(CC2CCCO2)c1C (stereo not given) | > 111 µM (inactive)
9 | COc1ccc(C(=O)Nc2nc3ccc(S(C)(=O)=O)cc3s2)cc1 | > 111 µM (inactive)
10 | Cc1ccc(C(=O)Nc2nc3cc(F)ccc3s2)cc1C | > 111 µM (inactive)
11 | CCn1c(C)cc(C(=O)CSc2nnnn2-c2ccccc2)c1C | > 111 µM (inactive)
12 | Cc1ccc(C(=O)Nc2nc3ccc(Br)cc3s2)cc1C | > 111 µM (inactive)
13 | Cc1ccc(-n2nnnc2SCC(=O)c2cc(C)n(CC3CCCO3)c2C)cc1 (stereo not given) | > 111 µM (inactive)
14 | COc1cccc2sc(NC(=O)c3ccc(C)c(C)c3)nc12 | > 111 µM (inactive)
15 | COCCn1c(C)cc(C(=O)CSc2nnnn2-c2ccccc2)c1C | > 111 µM (inactive)
16 | COc1ccc2sc(NC(=O)c3ccc(C)c(C)c3)nc2c1 | > 111 µM (inactive)
17 | COc1ccc2nc(NC(=O)c3ccc(C)c(C)c3)sc2c1 | > 111 µM (inactive)
18 | CS(=O)(=O)c1ccc2nc(NC(=O)c3ccccc3Cl)sc2c1 | > 111 µM (inactive)
19 | Cc1cc(C(=O)CSc2nnnn2-c2ccc(Cl)cc2)c(C)n1CC1CCCO1 (stereo not given) | > 111 µM (inactive)
20 | Cc1ccccc1C(=O)Nc1nc2ccc(S(C)(=O)=O)cc2s1 | > 111 µM (inactive)
21 | CS(=O)(=O)c1ccc2nc(NC(=O)c3ccccc3F)sc2c1 | > 111 µM (inactive)
22 | Cc1cccc(-n2nnnc2SCC(=O)c2cc(C)n(CC3CCCO3)c2C)c1 (stereo not given) | > 111 µM (inactive)
23 | Cc1cccc(C(=O)Nc2nc3ccc(S(C)(=O)=O)cc3s2)c1 | > 111 µM (inactive)
24 | Cc1cc(C(=O)CSc2nnnn2C)c(C)n1CC1CCCO1 (stereo not given) | > 111 µM (inactive)
25 | Cc1ccc(C(=O)Nc2nc3ccc(S(C)(=O)=O)cc3s2)cc1 | > 111 µM (inactive)
26 | Cc1cc(C(=O)CSc2nnnn2C2CC2)c(C)n1CC1CCCO1 (stereo not given) | > 111 µM (inactive)
27 | Cc1cc(C(=O)CSc2nnnn2-c2ccccc2)c(C)n1C | > 111 µM (inactive)
28 | CS(=O)(=O)c1ccc2nc(NC(=O)c3ccc(Cl)cc3)sc2c1 | > 111 µM (inactive)
29 | COc1ccc(-n2nnnc2SCC(=O)c2cc(C)n(CC3CCCO3)c2C)cc1 (stereo not given) | > 111 µM (inactive)
30 | COc1cccc(C(=O)Nc2nc3ccc(S(C)(=O)=O)cc3s2)c1 | > 111 µM (inactive)
